IC50 data for 23 molecules are collected here from ChEMBL document CHEMBL1127876, “Potent imidazole angiotensinII antagonists: acyl sulfonamides and acyl sulfamides as tetrazole replacements” (Bioorg Med Chem Lett, 1994).

In assay [1] the target is T1, Type-1 angiotensin II receptor (Oryctolagus cuniculus, UniProt P34976).
T1 sequence (P34976 whole entry): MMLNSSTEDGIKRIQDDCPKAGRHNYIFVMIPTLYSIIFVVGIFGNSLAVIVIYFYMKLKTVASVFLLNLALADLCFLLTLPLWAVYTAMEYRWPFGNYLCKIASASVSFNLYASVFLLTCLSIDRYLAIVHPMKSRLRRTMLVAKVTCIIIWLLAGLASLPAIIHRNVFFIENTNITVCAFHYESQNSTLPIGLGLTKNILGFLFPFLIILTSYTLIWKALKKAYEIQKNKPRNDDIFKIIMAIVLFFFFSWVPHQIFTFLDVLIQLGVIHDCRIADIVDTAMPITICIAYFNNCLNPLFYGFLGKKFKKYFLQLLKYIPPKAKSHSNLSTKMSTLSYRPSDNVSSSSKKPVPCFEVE
The assay is described as follows: In vitro inhibitory activity against Angiotensin II receptor, type 1 to displace 125I-Sar,Ile8-AII in rabbit aorta. It is filed as tissue-based.

The target in assay [2] is T2, Type-2 angiotensin II receptor (Rattus norvegicus, UniProt P35351).
T2 sequence (P35351 whole entry): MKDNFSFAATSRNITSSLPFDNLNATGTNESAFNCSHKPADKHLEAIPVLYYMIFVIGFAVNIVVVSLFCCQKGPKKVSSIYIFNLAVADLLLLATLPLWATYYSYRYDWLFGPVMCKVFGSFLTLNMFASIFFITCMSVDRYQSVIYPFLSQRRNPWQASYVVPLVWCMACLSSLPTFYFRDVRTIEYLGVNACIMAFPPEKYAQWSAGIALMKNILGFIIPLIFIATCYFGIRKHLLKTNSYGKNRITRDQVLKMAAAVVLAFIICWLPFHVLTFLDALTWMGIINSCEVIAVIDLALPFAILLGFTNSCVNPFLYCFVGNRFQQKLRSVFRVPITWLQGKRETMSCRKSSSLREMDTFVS
The assay is described as follows: In vitro inhibitory activity against angiotensin II (AT2) receptor to displace 125I-Sar,Ile8-AII in rat midbrain.

The IC50 is the point on the concentration scale where inhibition reaches its midpoint. On to `CCCc1nc(CC)c(C(=O)OC)n1Cc1ccc(-c2ccccc2S(=O)(=O)NC(=O)C2CC2)cc1`, for which the IC50 came out at 2.6 nM in assay [1] and 2100 nM in assay [2].

Turning to `CCCCc1ncc(C(=O)O)n1Cc1ccc(-c2ccccc2NS(=O)(=O)NC(=O)C2CC2)cc1`, the IC50 in assay [1] is 7.4 nM; in assay [2] it was > 10000 nM.

As for `CCCCc1ncc(C(=O)O)n1Cc1ccc(-c2ccccc2-c2nn[nH]n2)cc1`, the IC50 in assay [1] was 2.9 nM; in assay [2] it was > 50000 nM.

Regarding `CCCCc1ncc(C(=O)OC)n1Cc1ccc(-c2ccccc2S(=O)(=O)NC(=O)c2ccccc2)cc1`, the IC50 was 21 nM in assay [1] and > 1000 nM in assay [2].

As for `CCCCc1ncc(C(=O)O)n1Cc1ccc(-c2ccccc2S(=O)(=O)NC(=O)C2CC2)cc1`, the half-maximal inhibitory concentration (IC50) in assay [1] came out at 5.8 nM; in assay [2] it was 5800 nM.

Take `CCCc1nc(CC)c(C(=O)OC)n1Cc1ccc(-c2ccccc2S(=O)(=O)NC(=O)c2ccccc2)cc1`: the IC50 in assay [1] was 0.5 nM; in assay [2], 1000 nM.

For the molecule `CCCc1nc(CC)c(C(=O)O)n1Cc1ccc(-c2ccccc2S(=O)(=O)NC(=O)c2ccccc2)cc1`, the figures for the IC50 in assay [1] and in assay [2] were 1.7 nM and 7000 nM, respectively.

On to `CCCc1nc(CC)c(C(=O)O)n1Cc1ccc(-c2ccccc2-c2nnn[nH]2)cc1`, for which the IC50 in assay [1] was 6 nM; in assay [2], > 1000 nM.

Regarding `CCCc1nc(CC)c(C=O)n1Cc1ccc(-c2ccccc2-c2nnn[nH]2)cc1`, the IC50 in assay [1] is 8 nM; in assay [2], > 30000 nM.

In the case of `CCCCc1ncc(C(=O)OC)n1Cc1ccc(-c2ccccc2-c2nn[nH]n2)cc1`, the IC50 in assay [1] was 15 nM; in assay [2], > 50000 nM.

Turning to `CCCc1nc(CC)c(C=O)n1Cc1ccc(-c2ccccc2S(=O)(=O)NC(=O)C2CC2)cc1`, the IC50 stood at 12 nM in assay [1] and 2000 nM in assay [2].

As to `CCCCc1ncc(C(=O)O)n1Cc1ccc(-c2ccccc2S(=O)(=O)NC(=O)c2ccccc2)cc1`, the IC50 in assay [1] came out at 6.2 nM; in assay [2] it was 4500 nM.

On to `CCCCc1ncc(C(=O)OC)n1Cc1ccc(-c2ccccc2NS(=O)(=O)NC(=O)c2ccccc2)cc1`, for which the IC50 in assay [1] was 20 nM; in assay [2], 1800 nM.

For the molecule `CCCCc1ncc(C(=O)OC)n1Cc1ccc(-c2ccccc2NS(=O)(=O)NC(=O)C2CC2)cc1`, the results for the IC50 in assay [1] and in assay [2] were 32 nM and 10000 nM, respectively.

The molecule `CCCc1nc(CC)c(C=O)n1Cc1ccc(-c2ccccc2S(=O)(=O)NC(=O)c2ccccc2)cc1` displayed an IC50 in assay [1] of 2.4 nM.

Regarding `CCCCCCCC(=O)NS(=O)(=O)Nc1ccccc1-c1ccc(Cn2c(C(=O)OC)cnc2CCCC)cc1`, the values for the IC50 in assay [1] and in assay [2] were 1.9 nM and 500 nM, respectively.

As for `CCCc1nc(CC)c(C(=O)O)n1Cc1ccc(-c2ccccc2S(=O)(=O)NC(=O)C2CC2)cc1`, the IC50 in assay [1] is 4.3 nM; in assay [2] it was > 10000 nM.

Consider `CCCCc1nc(Cl)c(C(=O)O)n1Cc1ccc(-c2ccccc2S(=O)(=O)NC(=O)c2ccccc2)cc1`, for which the 50% inhibitory concentration (IC50) in assay [1] was determined as 2 nM; in assay [2], 9500 nM.

Consider `CCCCc1ncc(C(=O)O)n1Cc1ccc(-c2ccccc2NS(=O)(=O)NC(=O)c2ccccc2)cc1`, for which the IC50 in assay [1] was 6 nM; in assay [2], > 10000 nM.

Take `CCCCc1nc(Cl)c(C(=O)OC)n1Cc1ccc(-c2ccccc2S(=O)(=O)NC(=O)c2ccccc2)cc1`: the IC50 worked out at 8.8 nM in assay [1] and 5300 nM in assay [2].

For the molecule `CCCCc1nc(Cl)c(C(=O)OC)n1Cc1ccc(-c2ccccc2-c2nn[nH]n2)cc1`, the values for the IC50 in assay [1] and in assay [2] were 13 nM and > 50000 nM, respectively.

Take `CCCCCCCC(=O)NS(=O)(=O)Nc1ccccc1-c1ccc(Cn2c(C(=O)O)cnc2CCCC)cc1`: the IC50 in assay [1] is 0.2 nM; in assay [2] it was 2300 nM.

As for `CCCCc1ncc(C(=O)OC)n1Cc1ccc(-c2ccccc2S(=O)(=O)NC(=O)C2CC2)cc1`, the IC50 in assay [1] turned out to be 39 nM; in assay [2], 8000 nM.
